Measurements as given in patent US20020183365A1, “Method for treating fibrotic diseases or other indications IIIC” (priority 2000, published 2002).
Where a name gives a salt, the structure may show the parent alone.

Columns and labels:
Rats = experiment: Rat myocardial infarct model (coronary artery ligation), histological examination of hearts; format: in vivo; settings: daily intraperitoneal 10 mg/kg for 30 days before and 14 days after ligation; placebo 0.16±0.04 g; p=0.04
Protocol: Rats received a daily intraperitoneal dose of 10 mg/kg 3-[2-phenyl-2-oxoethyl]-4,5-dimethyl-thiazolium salt (compound A) (n=14) or placebo (n=15) for 30 days. The animals then underwent a thoracotomy and the left anterior descending coronary artery ligated. The chest was then closed and the animals allowed to recover for 14 days while continuing to be treated with compound A or placebo. The animals were then sacrificed and the hearts removed for histological examination. The weight of the infarcted tissue was 0.16±0.04 g for the placebo treated animals compared to 0.11±0.05 g for the compound A treated animals (p=0.04).

[1] = system: elderly patients with pulse pressures greater than 60 mm Hg; experiment: Phase IIa clinical trial; format: in vivo, human
Text: When the heart pumps blood into the vascular system, the ability of the arteries to expand helps to push blood through the body. When arteries become stiff, as they do in the natural process of aging, the ability of the arteries to expand is diminished and also has consequences for the heart. The heart has to work harder to pump the blood into the stiff arteries, and eventually hypertrophies (enlarges in size) to accomplish this. A hypertrophied heart is an inefficient pump, and is one of the disorders that leads to congestive heart failure. […] The potential clinical benefit of this is to lessen the effort that the heart must expend to push blood throughout the body. The effect is also believed to contribute to preventing hypertrophy and subsequent inefficiency of the heart, which inefficiency would contribute to congestive heart failure.
Atherosclerosis is a disease that involves deposition of blood lipids in plaque in the arteries throughout the body. In coronary arteries, accumulation of plaque progressively leads to reduced coronary flow, with occlusion of the arteries causing focal death of cardiac tissue (myocardial infarction, heart attack). If the amount of tissue that dies is large enough, death ensures. […] Reducing local deposits of plaque should eventually lessen the risk of myocardial infarction and death due to heart attacks.
Pulse pressure is the difference between systolic and diastolic blood pressure. In a young human, systolic pressure is typically 120 mm Hg and diastolic pressure is 80 mm Hg, resulting in a pulse pressure of 40 mm Hg. With age, in many individuals pulse pressure increases, largely due to the increase in systolic pressure that results from stiff vessel disease. In individuals with pulse pressure greater than 60 mm Hg there is an increased risk of death from cardiovascular morbidities. […] This decrease in pulse pressure was believed to be due primarily to the effect of the agent on lowering the systolic blood pressure.

dog model for diabetes = experiment: Dog model for diabetes, ventricular elasticity; format: in vivo
Text: (§1) Cardiovascular risk correlates more closely with the systolic and the pulse pressure than with the diastolic pressure. In diabetic patients, the cardiovascular risk profile of diabetic patients is strongly correlated to duration of diabetes, glycemic control and blood pressure. Structural matrix proteins contribute to the function of vessels and the heart, and changes in the physical behavior of cardiovascular walls are believed to be important determinants of circulatory function. In elderly individuals, the loss of compliance in the aorta leads to isolated systolic hypertension, which in turn expands the arterial wall and thereby diminishes the dynamic range of elasticity.

[2] = system: rodents, canines and primates; experiment: In vivo studies of vascular stiffening
Text: as §1

[3] = system: collagen in cardiovascular tissues; experiment: Mass of collagen in cardiovascular tissues after treatment; settings: in vivo
Text: as §1

Type IV collagen = experiment: In situ hybridization studies, Type IV collagen
Text: as §1

TGFbeta = experiment: In situ hybridization studies, TGFbeta
Text: as §1

[4] = series exploring certain imidazolium compounds; cited from earlier work

SMILES | weight of the infarcted tissue (Rats) | stiffness of arteries, as measured by the ratio of stroke volume (ml) to pulse pressure (mm Hg) ([1]; Phase IIa clinical trial) | amount of circulating triglycerides (lipids) ([1]; Phase IIa trial) | pulse pressure ([1]; Phase IIa trial, elderly patients with pulse pressures greater than 60 mm Hg, statistically significant) | end diastolic pressure, indicator of ventricular elasticity (dog model for diabetes) | end diastolic volume, indicator of ventricular elasticity (dog model for diabetes) | vascular stiffening [2] | mass of collagen in cardiovascular tissues [3] | expression of Type IV collagen (Type IV collagen) | expression of TGFbeta (TGFbeta) | glucose lowering effect [4]
Cc1sc[n+](CC(=O)c2ccccc2)c1C [compound A, 3-[2-phenyl-2-oxoethyl]-4,5-dimethyl-thiazolium salt] | 0.11 ± 0.05 g | showed an ability to reverse the stiffness of arteries | increased the amount of circulating triglycerides | reduced pulse pressure | returned to a value at about the mid-point between the disease impaired value and the value for control dogs | returned to a value at about the mid-point between the disease impaired value and the value for control dogs | substantially ameliorating vascular stiffening | reduction in the mass of collagen | reduces the expression | reduces the expression | –
Cc1ccc(C(=O)C[n+]2ccccc2)cc1.[Cl-] [1-[2-(4-methylphenyl)-2-oxoethyl]-pyridinium chloride] | – | – | – | – | – | – | – | – | – | – | inactive
